The values that follow come from US20250074888A1, “PYRIDAZINE DERIVATIVES AS MODULATORS OF NLRP3 INFLAMMASOME AND RELATED METHODS” (Neumora Therapeutics, Inc., priority 2021, published 2025).

The target of assay [1] is NLRP3 inflammasome (Homo sapiens, UniProt Q96P20). As to the kind of experiment: NLRP3 inflammasome activation in THP1 macrophages (LPS priming, nigericin), IL-1β AlphaLISA. The assay is classed as cell-based. The following applies: PMA-differentiated THP1, LPS 20 ng/ml 3 hrs, compound 1 hr, Nigericin 6.7 uM 3 hrs, supernatant.
Assay [2] deals with IL-6. As to the kind of experiment: IL-6 release from LPS-primed, nigericin-treated THP1 macrophages, Hu IL-6 AlphaLISA. The assay is classed as cell-based. The following applies: Homo sapiens, THP-1; PMA-differentiated THP1, LPS 20 ng/ml 3 hrs, compound 1 hr, Nigericin 6.7 uM 3 hrs, supernatant.

Sequence of NLRP3 inflammasome (Q96P20 whole entry): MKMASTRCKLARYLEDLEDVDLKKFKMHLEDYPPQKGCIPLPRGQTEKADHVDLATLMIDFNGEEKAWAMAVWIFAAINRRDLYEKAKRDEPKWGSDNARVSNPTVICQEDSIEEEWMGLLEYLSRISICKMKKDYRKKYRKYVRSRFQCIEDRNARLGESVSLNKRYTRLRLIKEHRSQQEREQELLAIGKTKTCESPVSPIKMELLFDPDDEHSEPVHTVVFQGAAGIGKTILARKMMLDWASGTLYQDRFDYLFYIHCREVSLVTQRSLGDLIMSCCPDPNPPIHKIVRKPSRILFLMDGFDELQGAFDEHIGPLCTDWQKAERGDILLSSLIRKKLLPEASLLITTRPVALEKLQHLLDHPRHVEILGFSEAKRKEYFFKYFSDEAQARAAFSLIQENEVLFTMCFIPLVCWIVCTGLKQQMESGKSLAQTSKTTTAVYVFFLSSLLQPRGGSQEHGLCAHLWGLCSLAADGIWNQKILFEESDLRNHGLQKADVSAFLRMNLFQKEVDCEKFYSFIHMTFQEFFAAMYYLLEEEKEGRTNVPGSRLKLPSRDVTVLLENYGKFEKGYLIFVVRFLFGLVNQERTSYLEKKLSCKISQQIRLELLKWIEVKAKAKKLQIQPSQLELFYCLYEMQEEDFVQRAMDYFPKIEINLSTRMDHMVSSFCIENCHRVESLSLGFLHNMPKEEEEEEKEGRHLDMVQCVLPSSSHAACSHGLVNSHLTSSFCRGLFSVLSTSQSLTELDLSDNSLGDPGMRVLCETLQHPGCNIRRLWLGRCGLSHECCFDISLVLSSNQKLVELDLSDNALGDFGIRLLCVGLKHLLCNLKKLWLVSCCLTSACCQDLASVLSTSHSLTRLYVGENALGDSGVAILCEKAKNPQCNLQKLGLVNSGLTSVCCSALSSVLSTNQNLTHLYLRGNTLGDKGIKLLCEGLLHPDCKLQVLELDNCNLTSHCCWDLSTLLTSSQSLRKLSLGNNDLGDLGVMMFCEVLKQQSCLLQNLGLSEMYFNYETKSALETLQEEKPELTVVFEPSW

Consider `Cc1cc(N(C2CC2)[C@@H]2CCCN(C)C2)nnc1-c1ccc(C(F)(F)F)cc1` [compound 193], for which the half-maximal inhibitory concentration (IC50) in assay [1] was not above 0.01 µM; in assay [2], 5 to 10 µM.
On to `CN1CCC[C@@H](Nc2cc(C(F)(F)F)c(-c3ccc(Cl)cc3)nn2)C1` [compound 194], for which the values for the IC50 in assay [1] and in assay [2] were not above 0.01 µM and more than 10 µM, respectively.
Regarding `CCN1CCC[C@@H](Nc2cc(C(F)(F)F)c(-c3ccc(F)cc3)nn2)C1` [compound 195], the IC50 in assay [1] is 0.01 to 0.05 µM; in assay [2] it was more than 10 µM.
On the same counts, the results for `CN1CCC[C@@H](Nc2nnc(-c3ccc(Cl)cc3)cc2C(F)(F)F)C1` [compound 196] are 0.5 to 1 µM and 1 to 5 µM.
In the same order, the values of `CCN1CCC[C@@H](Nc2nnc(-c3ccc(F)cc3)cc2C(F)(F)F)C1` [compound 197] are more than 1 µM and more than 10 µM.
On the same counts, the results for `Cc1cc(C(F)(F)F)ccc1-c1nnc(N[C@@H]2CCCN(C)C2)cc1O` [compound 198] are 0.5 to 1 µM and more than 10 µM.
Regarding `Cc1cc(C(F)F)ccc1-c1ccc(N[C@@H]2CCCN(C)C2)nn1` [compound 199], the figures for the IC50 in assay [1] and in assay [2] were 0.05 to 0.1 µM and more than 10 µM, respectively.
On the same counts, the results for `Cc1cc(Cl)ccc1-c1nnc(N[C@@H]2CCCN(C(C)C)C2)cc1C` [compound 200] are not above 0.01 µM and more than 10 µM.
In the same order, the values of `CCN1CCC[C@@H](Nc2cc(C)c(-c3ccc(Cl)cc3C)nn2)C1` [compound 201] are not above 0.01 µM and more than 10 µM.
On the same counts, the results for `Cc1cc(N(C)[C@@H]2CCCN(C)C2)nnc1-c1ccc(Cl)cc1` [compound 202] are 0.1 to 0.5 µM and more than 10 µM.
Take `Cc1cc(N[C@@H]2CCCN(C)C2)nnc1-c1ccc(F)cc1C(F)F` [compound 203]: the IC50 was 0.01 to 0.05 µM in assay [1] and more than 10 µM in assay [2].
In the same order, the values of `Cc1cc(Cl)ccc1-c1nnc(N(C)[C@@H]2CCCN(C)C2)cc1C` [compound 204] are 0.5 to 1 µM and more than 10 µM.
In the same order, the values of `Cc1cc(O[C@@H]2CCCN(C)C2)nnc1-c1ccc(Cl)cc1` [compound 210] are 0.1 to 0.5 µM and more than 10 µM.
